Measured values reported in patent publication US20230000936A1, “A[…] ITCHING […] C[…]” (Demetrix, Inc., priority 2021, published 2023).
Entries after “also recorded” stand apart in the source; their conditions may differ.

Assays:
Format in all cases: cell-based
CHRM2 [1] = biological target: T1, CHRM2 (Homo sapiens, UniProt P08172); test: GPCR reactivity screen, PathHunter β-Arrestin, agonist assay CHRM2; parameters: concentration or dose not given beside the values; settings: agonist mode; control acetylcholine
T1 sequence (P08172 1-466): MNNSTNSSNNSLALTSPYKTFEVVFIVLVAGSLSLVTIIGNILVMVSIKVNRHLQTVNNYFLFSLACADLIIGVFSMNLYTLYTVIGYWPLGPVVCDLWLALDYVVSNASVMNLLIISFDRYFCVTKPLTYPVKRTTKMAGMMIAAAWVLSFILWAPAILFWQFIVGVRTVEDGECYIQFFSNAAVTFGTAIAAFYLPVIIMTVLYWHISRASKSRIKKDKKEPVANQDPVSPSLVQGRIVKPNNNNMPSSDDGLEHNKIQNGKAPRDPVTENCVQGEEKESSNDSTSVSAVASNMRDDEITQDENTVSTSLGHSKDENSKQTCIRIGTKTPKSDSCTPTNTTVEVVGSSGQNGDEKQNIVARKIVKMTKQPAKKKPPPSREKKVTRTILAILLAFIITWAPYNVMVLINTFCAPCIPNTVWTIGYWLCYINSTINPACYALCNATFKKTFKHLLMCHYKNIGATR
Method: (§1) To evaluate the role specific cannabinoid compounds play in the neurological signaling pathway for itching, a GPCR reactivity assay was performed to determine the reactivity of 19 cannabinoid compounds to each of CHRM2, EDG3, and MRGPRX2. The evaluated cannabinoid compounds were: CBN, THCV, CBDVA, CBG, CBL, CBC, CBDV, CBDA, CBD, CBGA, (+)-CBD, CBG-C4, CBD-C1, CBD-C2, CBGV, CBGA-C4, CBGVA, CBCA, and CBLA. Acetylcholine was used as the control for CHRM2, sphingosine-1-phosphate was used as the control for EDG3; and cortistatin 14 was used as the control for MRGPRX2.
(§2) A total of six assays were run. Specifically, agonist and antagonist assays were run for each of CHRM2, EDG3, and MRGPRX2. In each of the three agonist assays, PathHunter® cell lines were removed from a freezer stock and seeded at a volume of 20 μL into white walled, 384-well microplates and incubated at 37° C. Each cell was incubated with a sample to induce a response and then diluted to generate a 5× sample in assay buffer. 5 μL of the 5× sample was then added to cells and incubated at 37° C. for 90 or 180 minutes. The final assay concentration was 1%. The assay signal was generated through addition of 12.5 μL or 15 μL (50% V/V) of a detection reagent cocktail followed by a one hour incubation time at room temperature. Microplates were read following signal generation with a PerkinElmer Envision™ (PerkinElmer Inc., Waltham, Mass.) for chemiluminescent signal detection. Reactivity was analyzed using the CBIS data analysis suite (ChemInnovation, CA) where RLU refers to the raw measured values. The percent activity was then calculated using the formula: % Activity=100%*(mean RLU of test sample−mean RLU of control)/(mean max control ligand−mean RLU of vehicle control).
(§3) As used herein, strong activity against a receptor is considered a percent activity of about 42% or higher. Higher results for antagonism against CHRM2, EDGE, and MRGPRX2 are considered better. It is further considered better when a cannabinoid inhibits more than one of the receptors.

CHRM2 [2] = biological target: T1, CHRM2; test: GPCR reactivity screen, PathHunter β-Arrestin, antagonist assay CHRM2; settings: for antagonist activity against CHRM2 (in words): GPCR reactivity screen; for CHRM2 (Antagonist) percent inhibition: antagonist mode, agonist challenge at EC80
Method: as §1
(§4) In each of the antagonist assays, PathHunter® cell lines were removed from a freezer stock and seeded at a volume of 20 μL into white walled, 384-well microplates and incubated at 37° C. Each cell was pre-incubated with an antagonist followed by an agonist challenge at the EC80 concentration. Cells were then diluted to generate a 5× sample in assay buffer. 5 μL of the 5× sample was then added to cells and incubated at 37° C. for 30 minutes. Finally, 5 μL of 6×EC80 agonist in assay buffer were added to the cells and incubated at 37° C. for 90 minutes or 180 minutes. The assay signal was generated through addition of 12.5 μL or 15 μL (50% V/V) of a detection reagent cocktail followed by a one hour incubation time at room temperature. Microplates were read following signal generation with a PerkinElmer Envision™ (PerkinElmer Inc., Waltham, Mass.) for chemiluminescent signal detection. Reactivity was analyzed using the CBIS data analysis suite (ChemInnovation, CA) where RLU refers to the raw measured values. The percent inhibition was calculated using the formula: % Inhibition=100%*(1−mean RLU of test sample−mean RLU of control)/(mean RLU of EC80 control−mean RLU of vehicle control).
as §3

EDG3 [3] = biological target: T2, EDG3 (Homo sapiens, UniProt Q99500); test: GPCR reactivity screen, PathHunter β-Arrestin, agonist assay EDG3; parameters: concentration or dose not given beside the values; settings: agonist mode; control sphingosine-1-phosphate
T2 sequence (Q99500 whole entry): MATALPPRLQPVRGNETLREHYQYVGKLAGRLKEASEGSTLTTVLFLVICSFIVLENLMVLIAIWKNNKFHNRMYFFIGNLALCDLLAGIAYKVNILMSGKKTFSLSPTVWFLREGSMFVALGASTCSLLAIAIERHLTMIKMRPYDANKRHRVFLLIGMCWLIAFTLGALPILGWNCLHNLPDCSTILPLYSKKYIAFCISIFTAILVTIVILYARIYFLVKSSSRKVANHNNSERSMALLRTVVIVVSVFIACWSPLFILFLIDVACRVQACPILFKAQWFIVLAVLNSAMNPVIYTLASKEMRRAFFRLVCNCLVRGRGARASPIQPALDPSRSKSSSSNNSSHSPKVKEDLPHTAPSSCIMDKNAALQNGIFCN
Method: as §1, §2, §3

EDG3 [4] = biological target: T2, EDG3; test: GPCR reactivity screen, PathHunter β-Arrestin, antagonist assay EDG3; settings: for antagonist activity against EDG3 (in words): GPCR reactivity screen; for EDG3 (Antagonist) percent inhibition: antagonist mode, agonist challenge at EC80
Method: as §1, §4, §3

MRGPRX2 [5] = biological target: T3, MRGPRX2 (Homo sapiens, UniProt Q96LB1); test: GPCR reactivity screen, PathHunter β-Arrestin, agonist assay MRGPRX2; settings: agonist mode; control cortistatin 14
T3 sequence (Q96LB1 1-330): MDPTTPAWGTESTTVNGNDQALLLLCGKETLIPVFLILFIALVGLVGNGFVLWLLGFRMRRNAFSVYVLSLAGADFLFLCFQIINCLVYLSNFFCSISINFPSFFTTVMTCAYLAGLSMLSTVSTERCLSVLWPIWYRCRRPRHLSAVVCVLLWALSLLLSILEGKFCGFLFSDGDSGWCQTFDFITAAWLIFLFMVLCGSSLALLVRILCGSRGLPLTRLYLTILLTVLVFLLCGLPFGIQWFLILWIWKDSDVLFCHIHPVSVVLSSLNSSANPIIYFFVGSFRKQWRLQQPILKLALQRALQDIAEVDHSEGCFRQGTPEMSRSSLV
Method: as §1, §2, §3

MRGPRX2 [6] = biological target: T3, MRGPRX2; test: GPCR reactivity screen, PathHunter β-Arrestin, antagonist assay MRGPRX2; settings: for antagonist activity against MRGPRX2 (in words): GPCR reactivity screen; for MRGPRX2 (Antagonist) percent inhibition: antagonist mode, agonist challenge at EC80
Method: as §1, §4, §3

MRGPRX2 [7] = biological target: T3, MRGPRX2; test: IC50 antagonist activity screen, PathHunter β-Arrestin, MRGPRX2; settings: maximum of IC50 curve
Method: as §4
IC50 curves were measured using the same GPCR assay, PathHunter® β-Arrestin from Eurofins DiscoverX Products (Fremont, Calif.), as the GPCR reactivity screen. As used herein, strong activity against a receptor is considered a maximum activity of about 42% or higher. Higher results for antagonism against CHRM2, EDGE, and MRGPRX2 are considered better. It is further considered better when a cannabinoid inhibits more than one of the receptors.

C=C(C)[C@@H]1CCC(C)=C[C@H]1c1c(O)cc(C)cc1O [CBD-C1, cannabidiorcol]
CHRM2 (Agonist) percent activity (CHRM2 [1]): −1%
antagonist activity against CHRM2 (in words) (CHRM2 [2]): do not exhibit an antagonistic effect; also recorded: did not exhibit antagonistic effects
CHRM2 (Antagonist) percent inhibition (CHRM2 [2]): 2%
EDG3 (Agonist) percent activity (EDG3 [3]): 1%
antagonist activity against EDG3 (in words) (EDG3 [4]): do not exhibit an antagonistic effect; also recorded: did not exhibit antagonistic effects
EDG3 (Antagonist) percent inhibition (EDG3 [4]): 13%
MRGPRX2 (Agonist) percent activity (MRGPRX2 [5]): 1%
antagonist activity against MRGPRX2 (in words) (MRGPRX2 [6]): do not exhibit an antagonistic effect; also recorded: did not exhibit antagonistic effects
MRGPRX2 (Antagonist) percent inhibition (MRGPRX2 [6]): 12%

C=C(C)[C@@H]1CCC(C)=C[C@H]1c1c(O)cc(CC)cc1O [CBD-C2, cannabidol-C2]
CHRM2 (Agonist) percent activity (CHRM2 [1]): 1%
antagonist activity against CHRM2 (in words) (CHRM2 [2]): do not exhibit an antagonistic effect; also recorded: did not exhibit antagonistic effects
CHRM2 (Antagonist) percent inhibition (CHRM2 [2]): 21%
EDG3 (Agonist) percent activity (EDG3 [3]): 1%
antagonist activity against EDG3 (in words) (EDG3 [4]): do not exhibit an antagonistic effect; also recorded: did not exhibit antagonistic effects
EDG3 (Antagonist) percent inhibition (EDG3 [4]): 20%
MRGPRX2 (Agonist) percent activity (MRGPRX2 [5]): 1%
antagonist activity against MRGPRX2 (in words) (MRGPRX2 [6]): do not exhibit an antagonistic effect; also recorded: did not exhibit antagonistic effects
MRGPRX2 (Antagonist) percent inhibition (MRGPRX2 [6]): 31%
maximum inhibition (antagonism) MRGPRX2 (MRGPRX2 [7]): 43%

C=C(C)[C@@H]1CCC(C)=C[C@H]1c1c(O)cc(CCCCC)c(C(=O)O)c1O [CBDA, cannabidiolic acid]
CHRM2 (Agonist) percent activity (CHRM2 [1]): 1%
antagonist activity against CHRM2 (in words) (CHRM2 [2]): do not exhibit an antagonistic effect
CHRM2 (Antagonist) percent inhibition (CHRM2 [2]): −10%
EDG3 (Agonist) percent activity (EDG3 [3]): −1%
antagonist activity against EDG3 (in words) (EDG3 [4]): do not exhibit an antagonistic effect
EDG3 (Antagonist) percent inhibition (EDG3 [4]): 5%
MRGPRX2 (Agonist) percent activity (MRGPRX2 [5]): 4%
antagonist activity against MRGPRX2 (in words) (MRGPRX2 [6]): do not exhibit an antagonistic effect
MRGPRX2 (Antagonist) percent inhibition (MRGPRX2 [6]): 8%

C=C(C)[C@@H]1CCC(C)=C[C@H]1c1c(O)cc(CCC)c(C(=O)O)c1O [CBDVA, cannabidivarinic acid]
CHRM2 (Agonist) percent activity (CHRM2 [1]): 2%
antagonist activity against CHRM2 (in words) (CHRM2 [2]): do not exhibit an antagonistic effect
CHRM2 (Antagonist) percent inhibition (CHRM2 [2]): 2%
EDG3 (Agonist) percent activity (EDG3 [3]): −3%
antagonist activity against EDG3 (in words) (EDG3 [4]): do not exhibit an antagonistic effect
EDG3 (Antagonist) percent inhibition (EDG3 [4]): 13%
MRGPRX2 (Agonist) percent activity (MRGPRX2 [5]): 5%
antagonist activity against MRGPRX2 (in words) (MRGPRX2 [6]): do not exhibit an antagonistic effect
MRGPRX2 (Antagonist) percent inhibition (MRGPRX2 [6]): −8%

CCCCc1cc(O)c(CC=C(C)CCC=C(C)C)c(O)c1 [CBG-C4, cannabigerol butyl]
CHRM2 (Agonist) percent activity (CHRM2 [1]): 0%
CHRM2 (Antagonist) percent inhibition (CHRM2 [2]): 13%
EDG3 (Agonist) percent activity (EDG3 [3]): 3%
EDG3 (Antagonist) percent inhibition (EDG3 [4]): 28%
MRGPRX2 (Agonist) percent activity (MRGPRX2 [5]): 3%
antagonist activity against MRGPRX2 (in words) (MRGPRX2 [6]): antagonist activity
MRGPRX2 (Antagonist) percent inhibition (MRGPRX2 [6]): 94%
maximum inhibition (antagonism) MRGPRX2 (MRGPRX2 [7]): 85%

CCCCCc1cc(O)c(C/C=C(\C)CCC=C(C)C)c(O)c1C(=O)O [CBGA, cannabigerolic acid]
CHRM2 (Agonist) percent activity (CHRM2 [1]): −3%
antagonist activity against CHRM2 (in words) (CHRM2 [2]): do not exhibit an antagonistic effect
CHRM2 (Antagonist) percent inhibition (CHRM2 [2]): 12%
EDG3 (Agonist) percent activity (EDG3 [3]): 2%
antagonist activity against EDG3 (in words) (EDG3 [4]): do not exhibit an antagonistic effect
EDG3 (Antagonist) percent inhibition (EDG3 [4]): 12%
MRGPRX2 (Agonist) percent activity (MRGPRX2 [5]): 0%
antagonist activity against MRGPRX2 (in words) (MRGPRX2 [6]): do not exhibit an antagonistic effect
MRGPRX2 (Antagonist) percent inhibition (MRGPRX2 [6]): 17%

CCCCc1cc(O)c(C/C=C(\C)CCC=C(C)C)c(O)c1C(=O)O [CBGA-C4, cannabigerolic acid butyl]
CHRM2 (Agonist) percent activity (CHRM2 [1]): −4%
antagonist activity against CHRM2 (in words) (CHRM2 [2]): do not exhibit an antagonistic effect
CHRM2 (Antagonist) percent inhibition (CHRM2 [2]): 19%
EDG3 (Agonist) percent activity (EDG3 [3]): 0%
antagonist activity against EDG3 (in words) (EDG3 [4]): do not exhibit an antagonistic effect
EDG3 (Antagonist) percent inhibition (EDG3 [4]): 16%
MRGPRX2 (Agonist) percent activity (MRGPRX2 [5]): −1%
antagonist activity against MRGPRX2 (in words) (MRGPRX2 [6]): do not exhibit an antagonistic effect
MRGPRX2 (Antagonist) percent inhibition (MRGPRX2 [6]): 20%

CCCc1cc(O)c(C/C=C(\C)CCC=C(C)C)c(O)c1C(=O)O [CBGVA, cannabigerovarinic acid]
CHRM2 (Agonist) percent activity (CHRM2 [1]): −4%
antagonist activity against CHRM2 (in words) (CHRM2 [2]): do not exhibit an antagonistic effect
CHRM2 (Antagonist) percent inhibition (CHRM2 [2]): 23%
EDG3 (Agonist) percent activity (EDG3 [3]): −1%
antagonist activity against EDG3 (in words) (EDG3 [4]): do not exhibit an antagonistic effect
EDG3 (Antagonist) percent inhibition (EDG3 [4]): 9%
MRGPRX2 (Agonist) percent activity (MRGPRX2 [5]): −1%
antagonist activity against MRGPRX2 (in words) (MRGPRX2 [6]): do not exhibit an antagonistic effect
MRGPRX2 (Antagonist) percent inhibition (MRGPRX2 [6]): 7%
